Test results reported in article PMC5809559, “DYRK1A inhibition and cognitive rescue in a Down syndrome mouse model are induced by new fluoro-DANDY derivatives” (Scientific Reports, 2018).
Values joined by “and” are separate entries in the source; they are usually repeats but may differ in a detail not shown here. Equal values may be shown once. Read-outs that look alike come from different tables or passages of the source.

Legend:
[1] = molecular target: T1, DYRK1A catalytic domain (DYRK1A-ΔC) (Rattus norvegicus, UniProt Q63470); test: In vitro DYRK1A kinase inhibition, UFLC assay with fluorescent peptide substrate; assay type: biochemical; details: read-out: IC50, in vitro inhibition of DYRK1A
T1 construct: The cDNA coding for the catalytic domain (residues 1-502) of rat DYRK1A; 6xHis; made in house; host or cells: E. coli BL21(DE3), pET28

KB cells = test: KB cell proliferation / cytotoxicity (CellTiter-Blue); assay type: cell-based; details: Homo sapiens; for inhibition at 1 µM / inhibition at 10 µM: 72 h; for inhibition at 1 µM: 10^−6 M, read-out: % Growth inhibition 10^−6 M; for inhibition at 10 µM: 10^−5 M, read-out: % Growth inhibition 10^−5 M
Description: Cancer cell lines were obtained from the American Type Culture Collection (Rockville, MD, USA) and were cultured according to the supplier’s instructions. Briefly, human KB epidermal carcinoma cells were grown in Dulbecco minimal essential medium (DMEM) containing 4.5 g/L glucose supplemented with 10% fetal calf serum (FCS) and 1% glutamine, 100 UI penicillin, 100 µg/mL streptomycin and 1.5 µg/mL fungizone and maintained at 37 °C in a humidified atmosphere containing 5% CO2. Cell viability was assessed using Promega CellTiter-Blue TM reagent according to the manufacturer’s instructions. Cells were seeded in 96-well plates (5 × 10^3 cells/well) containing […]. After 24 h of culture, the cells were supplemented with […] of the studied compound dissolved in DMSO (less than 0.1% in each preparation). After 72 h of incubation, […] of resazurin was added for 2 h before recording fluorescence (λex = 560 nm, λem = 590 nm) using a Victor microtiter plate fluorimeter (Perkin-Elmer, USA).

DYRK1A = molecular target: T2, DYRK1A (Homo sapiens, UniProt Q13627); test: Inhibition of tau phosphorylation by DYRK1A in cellulo (HEK293 co-transfected with DYRK1A and Tau, ClariCELL ELISA phospho-TauT212); assay type: cell-based
T2 construct: vectors encoding full-length human DYRK1A and Tau; host or cells: HEK293

[2] = parameters: method as in PMID 27194478; details: other drugs acting on the central nervous system; cited from earlier work
[3] = 3,5-diaryl-7-azaindoles 4a-4f, Fig. 4
[4] = 3,5-diaryl-7-azaindoles 5a-5g, Fig. 5

Row | Compound | IC50 [1, 3] | IC50 [1, 4] | further results
1 | COc1ccc(-c2cnc3[nH]cc(-c4ccc(F)cc4)c3c2)cc1OC [Compound 4a] | 1430 nM | – | –
2 | COc1ccc(-c2cnc3[nH]cc(-c4ccc(F)cc4)c3c2)c(OC)c1 [Compound 4b] | 920 nM | – | –
3 | COc1ccc(-c2cnc3[nH]cc(-c4ccc(F)c(F)c4)c3c2)cc1OC [Compound 4c] | 5260 nM | – | –
4 | COc1ccc(-c2cnc3[nH]cc(-c4ccc(F)c(F)c4)c3c2)c(OC)c1 [Compound 4d] | 37400 nM | – | –
5 | COc1ccc(-c2c[nH]c3ncc(-c4ccc(OCc5ccccc5)cc4)cc23)cc1F [Compound 4e] | 6090 nM | – | –
6 | COc1ccc(-c2c[nH]c3ncc(-c4ccc(OCc5ccccc5)c(OCc5ccccc5)c4)cc23)cc1OC [Compound 4f] | 18500 nM | – | –
7 | Oc1ccc(-c2cnc3[nH]cc(-c4ccc(F)cc4)c3c2)c(O)c1 [Compound 5b] | – | 191 nM | –
8 | Oc1ccc(-c2cnc3[nH]cc(-c4ccc(F)c(F)c4)c3c2)cc1O [Compound 5c] | – | 56.6 nM | inhibition at 1 µM (KB cells; KB): 6 ± 2%
9 | Oc1ccc(-c2cnc3[nH]cc(-c4ccc(F)c(F)c4)c3c2)c(O)c1 [Compound 5d] | – | 232 nM | –
10 | COc1ccc(-c2c[nH]c3ncc(-c4ccc(O)cc4)cc23)cc1F [Compound 5e] | – | 41.5 nM | inhibition at 10 µM (KB cells): 66 ± 3%; inhibition at 1 µM (KB cells): 30 ± 1%
11 | COc1ccc(-c2c[nH]c3ncc(-c4ccc(O)c(O)c4)cc23)cc1OC [Compound 5f] | – | 476 nM | –
12 | Oc1ccc(-c2cnc3[nH]cc(-c4ccc(O)c(F)c4)c3c2)cc1 [Compound 5g] | – | 9.34 nM and 9.3 nM | inhibition at 10 µM (KB cells; KB): 95 ± 1%; inhibition at 1 µM (KB cells; KB): 46 ± 1%; IC50 (KB cells; estimated, read-out: estimated IC50, KB cell growth inhibition): ~1000 nM; IC50 (DYRK1A; HEK293 transfected with DYRK1A and tau, 2 h incubation): 380 nM; Ratio between in cellulo and in vitro inhibitory potencies (DYRK1A; tau phosphorylation IC50 / in vitro DYRK1A IC50): 41
13 | CC(NC(C)(C)C)C(=O)c1cccc(Cl)c1 (centres unmarked) [buproprion] | – | – | Kp (brain concentration/plasma concentration) [2]: 4.97
14 | CNCCC(Oc1ccc(C(F)(F)F)cc1)c1ccccc1 (centres unmarked) [fluoxetine] | – | – | Kp (brain concentration/plasma concentration) [2]: 5.23
15 | OCCN1CCN(CCCN2c3ccccc3Sc3ccc(Cl)cc32)CC1 [perphenazine] | – | – | Kp (brain concentration/plasma concentration) [2]: 7.12
